Source: patent US11613525B2 (CTXT PTY LIMITED, priority 2018, dated 2023)
Like-named read-outs stand apart in the source and are kept apart here.

Key:
huSTING (HAQ) = huSTING (HAQ) (Homo sapiens (Human), UniProt Q86WV6, G230A/H232R/R293Q/R71H); experiment: THP-1 reporter cell line assay, THP-1 STING Lucia ISG cells; type: cell-based; settings: THP-1 STING Lucia ISG cells, read-out: Cellular EC50 huSTING (HAQ)
huSTING (WT) = huSTING (WT) (Homo sapiens (Human), UniProt Q86WV6, H232R); experiment: THP-1 reporter cell line assay, THP-1-Dual KI-hSTING-R232 cells; type: cell-based; settings: read-out: Cellular EC50 huSTING (WT)
huSTING (WT), sequence (Q86WV6 whole entry H232R): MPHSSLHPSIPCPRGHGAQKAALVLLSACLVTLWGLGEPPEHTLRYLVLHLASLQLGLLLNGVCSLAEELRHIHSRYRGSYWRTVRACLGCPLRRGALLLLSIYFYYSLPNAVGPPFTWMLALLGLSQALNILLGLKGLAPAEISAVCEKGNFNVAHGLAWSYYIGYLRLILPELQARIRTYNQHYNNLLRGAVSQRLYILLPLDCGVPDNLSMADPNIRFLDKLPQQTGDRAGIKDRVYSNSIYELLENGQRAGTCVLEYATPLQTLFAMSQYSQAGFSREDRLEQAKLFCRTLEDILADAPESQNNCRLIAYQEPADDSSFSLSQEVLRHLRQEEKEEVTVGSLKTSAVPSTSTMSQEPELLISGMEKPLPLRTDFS

[1] = modified method, top concentration 40 μM, pin tool, EnVision

huSTING (HAQ), sequence (Q86WV6 whole entry R71H/G230A/H232R/R293Q): as the sequence (Q86WV6 whole entry H232R) above, with R71H, G230A, R293Q counted along it

Row | EC50 (huSTING (HAQ); 24 h, top concentration 50 μM) | EC50 (huSTING (WT)) | EC50 (huSTING (HAQ); [1]) | SMILES
1 | 2.4 µM | 2.57 µM | – | CCOC(=O)c1sc2ccc(F)c(F)c2c1COc1ccc(C(N)=O)cc1 [Example 15, Ethyl 3-((4-carbamoylphenoxy)methyl)-4,5-difluorobenzo[b]thiophene-2-carboxylate]
2 | 14.8 µM | > 50 µM | – | CCOC(=O)c1sc2ccc(C)c(Cl)c2c1COc1ccc(C(N)=O)cc1 [Example 17, Ethyl 3-((4-carbamoylphenoxy)methyl)-4-chloro-5-methylbenzo[b]thiophene-2-carboxylate]
3 | > 50 µM | > 50 µM | – | CCOC(=O)c1sc2cc(Cl)cc(F)c2c1COc1ccc(C(N)=O)cc1 [Example 19, Ethyl 3-((4-carbamoylphenoxy)methyl)-6-chloro-4-fluorobenzo[b]thiophene-2-carboxylate]
4 | 0.474 µM | 0.576 µM | – | CCOC(=O)c1sc2cccc(Br)c2c1COc1ccc(C(N)=O)cc1 [Example 21, Ethyl 4-bromo-3-((4-carbamoylphenoxy)methyl)benzo[b]thiophene-2-carboxylate]
5 | 7.61 µM | 16.9 µM | – | CCOC(=O)c1sc2cccnc2c1COc1ccc(C(N)=O)cc1 [Example 23, Ethyl 3-((4-carbamoylphenoxy)methyl)thieno[3,2-b]pyridine-2-carboxylate]
6 | 1.6 µM | 1.42 µM | – | CCOC(=O)c1sc2cccc(Cl)c2c1COc1ccc(C(N)=O)c(F)c1 [Example 25, Ethyl 3-((4-carbamoyl-3-fluorophenoxy)methyl)-4-chlorobenzo[b]thiophene-2-carboxylate]
7 | > 50 µM | > 50 µM | – | CCOC(=O)c1sc2cccc(Cl)c2c1COc1cc(F)c(C(N)=O)c(F)c1 [Example 27, Ethyl 3-((4-carbamoyl-3,5-difluorophenoxy)methyl)-4-chlorobenzo[b]thiophene-2-carboxylate]
8 | 2.68 µM | 6.5 µM | – | CCOC(=O)c1sc2cccc(Cl)c2c1COc1ccc(C(N)=O)cc1OC [Example 29, Ethyl 3-((4-carbamoyl-2-methoxyphenoxy)methyl)-4-chlorobenzo[b]thiophene-2-carboxylate]
9 | 6.76 µM | 6.91 µM | – | CCOC(=O)c1sc2cc(F)cc(F)c2c1COc1ccc(C(N)=O)cc1 [Example 31, Ethyl 3-((4-carbamoylphenoxy)methyl)-4,6-difluorobenzo[b]thiophene-2-carboxylate]
10 | 0.665 µM | 0.891 µM | – | CCOC(=O)c1sc2cccc(OC)c2c1COc1ccc(C(N)=O)cc1 [Example 33, Ethyl 3-((4-carbamoylphenoxy)methyl)-4-methoxybenzo[b]thiophene-2-carboxylate]
11 | 0.655 µM | 1.28 µM | – | CCOC(=O)c1sc2cccc(C(F)(F)F)c2c1COc1ccc(C(N)=O)cc1 [Example 35, Ethyl 3-((4-carbamoylphenoxy)methyl)-4-(trifluoromethyl)benzo[b]thiophene-2-carboxylate]
12 | 3.84 µM | 4.77 µM | – | CCOC(=O)c1sc2cccc(Cl)c2c1COc1ccc(C(N)=O)cc1Cl [Example 37, Ethyl 3-((4-carbamoyl-2-chlorophenoxy)methyl)-4-chlorobenzo[b]thiophene-2-carboxylate]
13 | 1.48 µM | 1.78 µM | – | CCOC(=O)c1sc2cccc(Cl)c2c1COc1c(Cl)cc(C(N)=O)cc1Cl [Example 39, Ethyl 3-((4-carbamoyl-2,6-dichlorophenoxy)methyl)-4-chlorobenzo[b]thiophene-2-carboxylate]
14 | 0.798 µM | 2.46 µM | – | CCOC(=O)c1sc2cccc(Cl)c2c1COc1c(OC)cc(C(N)=O)cc1OC [Example 41, Ethyl 3-((4-carbamoyl-2,6-dimethoxyphenoxy)methyl)-4-chlorobenzo[b]thiophene-2-carboxylate]
15 | 1.35 µM | 3.78 µM | – | CCOC(=O)c1sc2cccc(Cl)c2c1COc1ccc(C(N)=O)cc1C#N [Example 43, Ethyl 3-((4-carbamoyl-2-cyanophenoxy)methyl)-4-chlorobenzo[b]thiophene-2-carboxylate]
16 | 12.9 µM | 24.7 µM | – | CCOC(=O)c1sc2cccc(Cl)c2c1COc1ccc(C(N)=O)nc1 [Example 45, Ethyl 3-(((6-carbamoylpyridin-3-yl)oxy)methyl)-4-chlorobenzo[b]thiophene-2-carboxylate]
17 | 18.7 µM | > 50 µM | – | CCOC(=O)c1sc2cccc(Cl)c2c1COc1ccc2c(N)noc2c1 [Example 47, Ethyl 3-(((3-aminobenzo[d]isoxazol-6-yl)oxy)methyl)-4-chlorobenzo[b]thiophene-2-carboxylate]
18 | 17.2 µM | 24.1 µM | – | CCOC(=O)c1sc2cccc(F)c2c1COc1ccc(C(N)=O)c(Cl)c1 [Example 49, Ethyl 3-((4-carbamoyl-3-chlorophenoxy)methyl)-4-fluorobenzo[b]thiophene-2-carboxylate]

Row | EC50 (huSTING (HAQ); 24 h, top concentration 50 μM) | EC50 (huSTING (WT)) | EC50 (huSTING (HAQ); [1]) | SMILES
19 | > 50 µM | > 50 µM | – | CCOC(=O)c1sc2cccc(F)c2c1COc1ccc(C(N)=O)c(C(F)(F)F)c1 [Example 51, Ethyl 3-((4-carbamoyl-3-(trifluoromethyl)phenoxy)methyl)-4-fluorobenzo[b]thiophene-2-carboxylate]
20 | > 50 µM | > 50 µM | – | CCOC(=O)c1sc2cccc(F)c2c1COc1ccc(C(N)=O)c(C)c1 [Example 53, Ethyl 3-((4-carbamoyl-3-methylphenoxy)methyl)-4-fluorobenzo[b]thiophene-2-carboxylate]
21 | 3.6 µM | > 50 µM | – | CCOC(=O)c1sc2cccc(F)c2c1COc1c(F)cc(C(N)=O)cc1Br [Example 55, Ethyl 3-((2-bromo-4-carbamoyl-6-fluorophenoxy)methyl)-4-fluorobenzo[b]thiophene-2-carboxylate]
22 | 0.827 µM | 47.4 µM | – | CCOC(=O)c1sc2cccc(C3CC3)c2c1COc1ccc(C(N)=O)cc1 [Example 60, Ethyl 3-((4-carbamoylphenoxy)methyl)-4-cyclopropylbenzo[b]thiophene-2-carboxylate]
23 | 0.95 µM | 1.65 µM | – | CCOC(=O)c1sc2cccc(C#N)c2c1COc1ccc(C(N)=O)cc1 [Example 62, Ethyl 3-((4-carbamoylphenoxy)methyl)-4-cyanobenzo[b]thiophene-2-carboxylate]
24 | 8.03 µM | > 50 µM | – | CCOC(=O)c1sc2cccc(Cl)c2c1COc1ccc(C(N)=O)c(F)c1F [Example 66, Ethyl 3-((4-carbamoyl-2,3-difluorophenoxy)methyl)-4-chlorobenzo[b]thiophene-2-carboxylate]
25 | 0.26 µM | 1.63 µM | – | CCOC(=O)c1sc2cccc(Cl)c2c1COc1c(F)cc(C(N)=O)cc1F [Example 68, Ethyl 3-((4-carbamoyl-2,6-difluorophenoxy)methyl)-4-chlorobenzo[b]thiophene-2-carboxylate]
26 | 7.44 µM | > 50 µM | – | CCOC(=O)c1sc2cccc(Cl)c2c1COc1c(C)cc(C(N)=O)cc1OC [Example 72, Ethyl 3-((4-carbamoyl-2-methoxy-6-methylphenoxy)methyl)-4-chlorobenzo[b]thiophene-2-carboxylate]
27 | 17.9 µM | > 50 µM | – | CCOC(=O)c1sc2cccc(Cl)c2c1CNc1ccc(C(N)=O)cc1 [Example 75, Ethyl 3-(((4-carbamoylphenyl)amino)methyl)-4-chlorobenzo[b]thiophene-2-carboxylate]
28 | 0.702 µM | 3.22 µM | – | CCOC(=O)c1sc2cccc(C)c2c1COc1ccc(C(N)=O)cc1 [Example 77, Ethyl 3-((4-carbamoylphenoxy)methyl)-4-methylbenzo[b]thiophene-2-carboxylate]
29 | 0.17 µM | 0.474 µM | – | CCOC(=O)c1sc2c(F)ccc(F)c2c1COc1c(F)cc(C(N)=O)cc1F [Example 79, Ethyl 3-((4-carbamoyl-2,6-difluorophenoxy)methyl)-4,7-difluorobenzo[b]thiophene-2-carboxylate]
30 | 2.79 µM | 20.7 µM | – | CCOC(=O)c1sc2c(F)ccc(F)c2c1COc1ccc(C(N)=O)cc1 [Example 81, Ethyl 3-((4-carbamoylphenoxy)methyl)-4,7-difluorobenzo[b]thiophene-2-carboxylate]
31 | 2.61 µM | > 50 µM | – | CCOC(=O)c1sc2ccc(F)c(Cl)c2c1COc1ccc(C(N)=O)cc1 [Example 83, Ethyl 3-((4-carbamoylphenoxy)methyl)-4-chloro-5-fluorobenzo[b]thiophene-2-carboxylate]
32 | 1.63 µM | > 50 µM | – | CCOC(=O)c1sc2ccc(F)c(Cl)c2c1COc1c(F)cc(C(N)=O)cc1F [Example 85, Ethyl 3-((4-carbamoyl-2,6-difluorophenoxy)methyl)-4-chloro-5-fluorobenzo[b]thiophene-2-carboxylate]
33 | – | 0.148 µM | 0.016 µM | CCOC(=O)c1sc2cccc(Br)c2c1COc1c(F)cc(C(N)=O)cc1F [Example 89, Ethyl 4-bromo-3-((4-carbamoyl-2,6-difluorophenoxy)methyl)benzo[b]thiophene-2-carboxylate]
34 | – | 0.862 µM | 0.27 µM | CCOC(=O)c1sc2ccnc(Cl)c2c1COc1c(F)cc(C(N)=O)cc1F [Example 91, Ethyl 3-((4-carbamoyl-2,6-difluorophenoxy)methyl)-4-chlorothieno[3,2-c]pyridine-2-carboxylate]
35 | – | 0.163 µM | 0.05 µM | CCOC(=O)c1sc2c(F)ccc(Cl)c2c1COc1c(F)cc(C(N)=O)cc1F [Example 92, Ethyl 3-((4-carbamoyl-2,6-difluorophenoxy)methyl)-4-chloro-7-fluorobenzo[b]thiophene-2-carboxylate]
36 | – | 1.69 µM | 0.39 µM | CCOC(=O)c1sc2cccc(OCC)c2c1COc1c(F)cc(C(N)=O)cc1F [Example 94, Ethyl 3-((4-carbamoyl-2,6-difluorophenoxy)methyl)-4-ethoxybenzo[b]thiophene-2-carboxylate]
